In brackets after ≈: the same amount, converted by molar mass.
Key:
Streptococcus pneumoniae [1] = assay: Antibacterial activity against erythromycin-susceptible Streptococcus pneumoniae ATCC 49619
Streptococcus pneumoniae [2] = assay: Antibacterial activity against erythromycin-resistant Streptococcus pneumoniae B1 encoded by erm gene
Streptococcus pneumoniae [3] = assay: Antibacterial activity against erythromycin-resistant Streptococcus pneumoniae A22072 encoded by mef gene
Streptococcus pneumoniae [4] = assay: Antibacterial activity against erythromycin-resistant Streptococcus pneumoniae AB11 encoded by erm and mef gene

Row | Compound | MIC (Streptococcus pneumoniae [1]) | MIC (Streptococcus pneumoniae [2]) | MIC (Streptococcus pneumoniae [3]) | MIC (Streptococcus pneumoniae [4])
1 | CC[C@H]1OC(=O)[C@H](C)[C@@H](O[C@H]2C[C@@](C)(OC)[C@@H](OC(=O)NCCc3ccc(O)cc3)[C@H](C)O2)[C@H](C)[C@@H](O[C@@H]2O[C@H](C)C[C@H](N(C)C)[C@H]2O)[C@@](C)(O)C[C@@H](C)CN(C)[C@H](C)[C@@H](OC(=O)NCCc2ccccc2Cl)[C@]1(C)O | < 0.03 µg/mL | 0.25 µg/mL (≈ 0.229 µM) | 0.25 µg/mL (≈ 0.229 µM) | 16 µg/mL (≈ 14.6 µM)
2 | CCCCCNC(=O)O[C@H]1[C@H](C)O[C@@H](O[C@H]2[C@H](C)[C@@H](O[C@@H]3O[C@H](C)C[C@H](N(C)C)[C@H]3O)[C@@](C)(O)C[C@@H](C)CN(C)[C@H](C)[C@H]3OC(=O)O[C@]3(C)[C@@H](CC)OC(=O)[C@@H]2C)C[C@@]1(C)OC | 0.06 µg/mL (≈ 0.0676 µM) | 16 µg/mL (≈ 18 µM) | 8 µg/mL (≈ 9.01 µM) | 16 µg/mL (≈ 18 µM)
3 | CCCCCNC(=O)O[C@@H]1[C@@H](C)N(C)C[C@H](C)C[C@](C)(O)[C@H](O[C@@H]2O[C@H](C)C[C@H](N(C)C)[C@H]2O)[C@@H](C)[C@H](O[C@H]2C[C@@](C)(OC)[C@@H](OC(=O)NCc3ccc(OC)cc3)[C@H](C)O2)[C@@H](C)C(=O)O[C@H](CC)[C@@]1(C)O | 0.06 µg/mL (≈ 0.0585 µM) | 0.5 µg/mL (≈ 0.488 µM) | 1 µg/mL (≈ 0.975 µM) | 32 µg/mL (≈ 31.2 µM)
4 | CCCCCNC(=O)O[C@@H]1[C@@H](C)N(C)C[C@H](C)C[C@](C)(O)[C@H](O[C@@H]2O[C@H](C)C[C@H](N(C)C)[C@H]2O)[C@@H](C)[C@H](O[C@H]2C[C@@](C)(OC)[C@@H](OC(=O)NCCc3ccccc3Cl)[C@H](C)O2)[C@@H](C)C(=O)O[C@H](CC)[C@@]1(C)O | < 0.03 µg/mL | 0.5 µg/mL (≈ 0.479 µM) | 0.5 µg/mL (≈ 0.479 µM) | 16 µg/mL (≈ 15.3 µM)
5 | CCCNC(=O)O[C@H]1[C@H](C)O[C@@H](O[C@H]2[C@H](C)[C@@H](O[C@@H]3O[C@H](C)C[C@H](N(C)C)[C@H]3O)[C@@](C)(O)C[C@@H](C)CN(C)[C@H](C)[C@H]3OC(=O)O[C@]3(C)[C@@H](CC)OC(=O)[C@@H]2C)C[C@@]1(C)OC | 0.06 µg/mL (≈ 0.0698 µM) | 16 µg/mL (≈ 18.6 µM) | 0.12 µg/mL (≈ 0.14 µM) | 16 µg/mL (≈ 18.6 µM)
6 | CCCNC(=O)O[C@H]1[C@H](C)O[C@@H](O[C@H]2[C@H](C)[C@@H](O[C@@H]3O[C@H](C)C[C@H](N(C)C)[C@H]3O)[C@@](C)(O)C[C@@H](C)CN(C)[C@H](C)[C@@H](O)[C@](C)(O)[C@@H](CC)OC(=O)[C@@H]2C)C[C@@]1(C)OC | 0.12 µg/mL (≈ 0.144 µM) | 64 µg/mL (≈ 76.7 µM) | 4 µg/mL (≈ 4.8 µM) | 64 µg/mL (≈ 76.7 µM)
7 | CC[C@H]1OC(=O)[C@H](C)[C@@H](O[C@H]2C[C@@](C)(OC)[C@@H](OC(=O)NCCc3ccc(O)cc3)[C@H](C)O2)[C@H](C)[C@@H](O[C@@H]2O[C@H](C)C[C@H](N(C)C)[C@H]2O)[C@@](C)(O)C[C@@H](C)CN(C)[C@H](C)[C@@H](O)[C@]1(C)O | < 0.03 µg/mL | 4 µg/mL (≈ 4.39 µM) | 0.5 µg/mL (≈ 0.548 µM) | 2 µg/mL (≈ 2.19 µM)
8 | CC[C@H]1OC(=O)[C@H](C)[C@@H](O[C@H]2C[C@@](C)(OC)[C@@H](OC(=O)NCCc3ccccc3)[C@H](C)O2)[C@H](C)[C@@H](O[C@@H]2O[C@H](C)C[C@H](N(C)C)[C@H]2O)[C@@](C)(O)C[C@@H](C)CN(C)[C@H](C)[C@H]2OC(=O)O[C@@]21C | 0.06 µg/mL (≈ 0.0651 µM) | 8 µg/mL (≈ 8.68 µM) | 0.06 µg/mL (≈ 0.0651 µM) | 2 µg/mL (≈ 2.17 µM)
9 | CC[C@H]1OC(=O)[C@H](C)[C@@H](O[C@H]2C[C@@](C)(OC)[C@@H](OC(=O)NC3CCCCC3)[C@H](C)O2)[C@H](C)[C@@H](O[C@@H]2O[C@H](C)C[C@H](N(C)C)[C@H]2O)[C@@](C)(O)C[C@@H](C)CN(C)[C@H](C)[C@@H](O)[C@]1(C)O | 0.12 µg/mL (≈ 0.137 µM) | 32 µg/mL (≈ 36.6 µM) | 8 µg/mL (≈ 9.15 µM) | 128 µg/mL (≈ 146 µM)
10 | C=CCNC(=O)O[C@H]1[C@H](C)O[C@@H](O[C@H]2[C@H](C)[C@@H](O[C@@H]3O[C@H](C)C[C@H](N(C)C)[C@H]3O)[C@@](C)(O)C[C@@H](C)CN(C)[C@H](C)[C@@H](O)[C@](C)(O)[C@@H](CC)OC(=O)[C@@H]2C)C[C@@]1(C)OC | < 0.03 µg/mL | 16 µg/mL (≈ 19.2 µM) | 1 µg/mL (≈ 1.2 µM) | 32 µg/mL (≈ 38.5 µM)
11 | CC[C@H]1OC(=O)[C@H](C)[C@@H](O[C@H]2C[C@@](C)(OC)[C@@H](O)[C@H](C)O2)[C@H](C)[C@@H](O[C@@H]2O[C@H](C)C[C@H](N(C)C)[C@H]2O)[C@](C)(O)C[C@@H](C)CN(C)[C@H](C)[C@@H](O)[C@]1(C)O [AZITHROMYCIN] | < 0.03 µg/mL | 128 µg/mL (≈ 171 µM) | 4 µg/mL (≈ 5.34 µM) | 256 µg/mL (≈ 342 µM)
12 | CC[C@H]1OC(=O)[C@H](C)[C@@H](O[C@H]2C[C@@](C)(OC)[C@@H](OC(=O)NCCc3ccc(O)cc3)[C@H](C)O2)[C@H](C)[C@@H](O[C@@H]2O[C@H](C)C[C@H](N(C)C)[C@H]2O)[C@@](C)(O)C[C@@H](C)CN(C)[C@H](C)[C@@H](OC(=O)NCc2ccccc2)[C@]1(C)O | < 0.03 µg/mL | 0.25 µg/mL (≈ 0.239 µM) | 0.12 µg/mL (≈ 0.115 µM) | 128 µg/mL (≈ 122 µM)
13 | CC[C@H]1OC(=O)[C@H](C)[C@@H](O[C@H]2C[C@@](C)(OC)[C@@H](OC(=O)NC(C)C)[C@H](C)O2)[C@H](C)[C@@H](O[C@@H]2O[C@H](C)C[C@H](N(C)C)[C@H]2O)[C@@](C)(O)C[C@@H](C)CN(C)[C@H](C)[C@@H](O)[C@]1(C)O | 0.12 µg/mL (≈ 0.144 µM) | 128 µg/mL (≈ 153 µM) | 8 µg/mL (≈ 9.59 µM) | 256 µg/mL (≈ 307 µM)
14 | CC[C@H]1OC(=O)[C@H](C)[C@@H](O[C@H]2C[C@@](C)(OC)[C@@H](OC(=O)NCCc3ccccc3Cl)[C@H](C)O2)[C@H](C)[C@@H](O[C@@H]2O[C@H](C)C[C@H](N(C)C)[C@H]2O)[C@@](C)(O)C[C@@H](C)CN(C)[C@H](C)[C@@H](O)[C@]1(C)O | < 0.03 µg/mL | 8 µg/mL (≈ 8.6 µM) | 1 µg/mL (≈ 1.07 µM) | 8 µg/mL (≈ 8.6 µM)
15 | C=CCNC(=O)O[C@H]1[C@H](C)O[C@@H](O[C@H]2[C@H](C)[C@@H](O[C@@H]3O[C@H](C)C[C@H](N(C)C)[C@H]3O)[C@@](C)(O)C[C@@H](C)CN(C)[C@H](C)[C@H]3OC(=O)O[C@]3(C)[C@@H](CC)OC(=O)[C@@H]2C)C[C@@]1(C)OC | 0.12 µg/mL (≈ 0.14 µM) | 64 µg/mL (≈ 74.6 µM) | 1 µg/mL (≈ 1.17 µM) | 128 µg/mL (≈ 149 µM)

— ChEMBL document CHEMBL1154057, “Synthesis and antibacterial activity of novel 15-membered macrolide derivatives: 4''-carbamate, 11,12-cyclic carbonate-4''-carbamate and 11,4''-di-O-arylcarbamoyl analogs of azithromycin” (2009)
